Experimental data reported in patent publication US9199918B2, “Small molecule inhibitors of AGBL2” (Georgetown University, priority 2011, dated 2015).
One block for each molecule: values may come before it.

Key:
AGBL2 [1] = molecular target: T1, AGBL2 (Homo sapiens, UniProt Q5U5Z8); assay: Enzyme inhibition kinetic assay (fluorometric, release of tyrosine from hydroxycoumarin-conjugated tubulin CTT substrate); type: biochemical; details: 1 nM recombinant AGBL2; substrate 1 μM; 25° C., pH 7.5; apparent Ki fitted to Morrison equation for tight-binding inhibitors
T1 construct: His (N); made in house; protein recovered from inclusion bodies
T1 sequence (Q5U5Z8 1-902): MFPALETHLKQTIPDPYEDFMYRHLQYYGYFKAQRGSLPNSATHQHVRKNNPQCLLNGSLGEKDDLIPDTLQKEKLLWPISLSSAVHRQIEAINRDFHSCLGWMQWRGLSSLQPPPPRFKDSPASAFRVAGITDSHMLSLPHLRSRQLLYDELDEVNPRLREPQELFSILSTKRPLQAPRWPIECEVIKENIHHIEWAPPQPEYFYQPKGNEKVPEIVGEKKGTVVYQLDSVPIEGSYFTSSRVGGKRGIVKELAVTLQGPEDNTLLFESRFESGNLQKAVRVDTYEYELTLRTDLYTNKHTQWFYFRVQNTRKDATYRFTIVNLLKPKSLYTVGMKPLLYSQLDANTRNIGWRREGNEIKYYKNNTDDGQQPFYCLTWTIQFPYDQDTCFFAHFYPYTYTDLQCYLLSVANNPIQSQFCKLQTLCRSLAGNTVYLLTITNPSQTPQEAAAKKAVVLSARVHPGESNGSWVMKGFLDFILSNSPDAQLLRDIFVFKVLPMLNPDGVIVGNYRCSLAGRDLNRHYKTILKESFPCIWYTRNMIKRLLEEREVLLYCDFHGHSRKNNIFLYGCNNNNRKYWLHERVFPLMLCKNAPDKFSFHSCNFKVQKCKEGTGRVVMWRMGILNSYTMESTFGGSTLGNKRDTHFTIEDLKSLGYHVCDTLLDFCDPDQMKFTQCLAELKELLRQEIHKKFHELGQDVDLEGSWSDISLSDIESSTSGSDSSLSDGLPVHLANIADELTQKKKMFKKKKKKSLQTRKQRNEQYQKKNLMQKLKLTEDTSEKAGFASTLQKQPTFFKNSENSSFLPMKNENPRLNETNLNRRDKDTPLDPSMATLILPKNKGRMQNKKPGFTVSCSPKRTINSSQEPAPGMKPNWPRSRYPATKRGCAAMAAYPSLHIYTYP
Source text: Fluorescence Resonance Energy Transfer (FRET) principle can be applied to generate real-time enzymatic activity data. The tyrosinated C-terminal tail of tubulin has a tyrosine at the C-terminal. Tyrosines absorb at 270 nm and emit in the 280 to 350 nm range with a λMax=303 nm. Adding a hydroxycoumarin that absorbs in the range of 300 to 350 nm to the N-terminal of the CTT of tubulin (see FIG. 5) allows the quenching of the tyrosine emission that can be monitored at 303 nm. Emissions at 303 nm can be detected after the cleavage of the tyrosine residue since the latter will follow a Brownian motion and become physical situated far from the quencher (Hydroxycoumarin). Assays can be performed at 25° C. in 10 mM CaCl2, 0.2 M NaCl, and 0.05% Brij-35 in 50 mM HEPES, pH 7.5, over a substrate concentration range of […] and an enzyme concentration range of 0.1-50 nM. An exemplary assay was performed by incubating 186 μL of buffer solution, 4 μL of substrate solution, and then adding 10 μL of AGBL2 solution. The mixture was then incubated for 15 to 120 minutes at 25° C.
Kinetic assays of the inhibition of AGBL2 were carried out using the substrate described in Example 4 to measure inhibition constants. Enzymatic assays were performed at 25° C. in 50 mM HEPES buffer at pH 7.5 in the presence of 10 mM CaCl2, 0.2 M NaCl, and 0.01% or 0.05% Brij-35 with substrate concentrations of 1 μM. The release of tyrosine was monitored by measuring fluorescence (excitation and emission wavelengths of 270 nm and 303 nm, respectively). The compounds tested as inhibitors included compound Sd-1, compound Sd-2, compound Sd-3, and compound Sd-4. All stock solutions of inhibitors were in methanol. For inhibition assays, 10 μL of inhibitor stock solution, 176 μL of assay buffer, and 10 μL of enzyme stock solution were mixed and incubated for 30 to 60 minutes prior to initiation of the assay, which was accomplished by adding and mixing 4 μL of substrate stock solution. Enzyme concentrations ranged from 0.2 to 7 nM during the assay. Apparent inhibition constant (Ki^app) values were calculated by fitting the kinetics data to the Morrison equation for tight-binding inhibitors, where vi and vo are the initial rates with and without inhibitor, respectively, and [E]o and [I]o are the initial (total) enzyme and inhibitor concentrations, respectively. The Ki values of the four tested compounds and of recombinant RARRES1, all including 1 nM of recombinant AGBL2) are shown in Table 1.

AGBL2 [2] = molecular target: T1, AGBL2; assay: High throughput enzyme kinetic (FRET) assay, saturation curves in the presence of inhibitor; type: biochemical; details: AGBL2 1 nM; Sd-4 at 1 nM, 5 nM and 10 nM; substrate 0 to 3 μM
Source text: Fluorescence Resonance Energy Transfer (FRET) principle can be applied to generate real-time enzymatic activity data. The tyrosinated C-terminal tail of tubulin has a tyrosine at the C-terminal. Tyrosines absorb at 270 nm and emit in the 280 to 350 nm range with a λMax=303 nm. Adding a hydroxycoumarin that absorbs in the range of 300 to 350 nm to the N-terminal of the CTT of tubulin (see FIG. 5) allows the quenching of the tyrosine emission that can be monitored at 303 nm. Emissions at 303 nm can be detected after the cleavage of the tyrosine residue since the latter will follow a Brownian motion and become physical situated far from the quencher (Hydroxycoumarin). […]
The reaction rate can be analyzed using different substrate concentrations and the saturation curve can be drawn. The maximum reaction rate (Vmax) and the substrate concentration at half the Vmax referred to as the Michaelis-Menten constant (KM) can be determined from the saturation curve. Inhibitors can also be analyzed and a saturation curve in the presence of inhibitor can be drawn. The reaction rate was analyzed using substrate concentrations over a range of 0 to 3 μM. […] The dissociation constant of the inhibitor (Ki) can be calculated using the following equation: Ki=[Inhibitor]/((KM,obs/KM)−1.0).

Ki (AGBL2 [1]): 4.89 nM
inhibition of AGBL2 activity at varying substrate concentrations (FIG. 6) (AGBL2 [2]): inhibition of AGBL2 activity
Molecule: O=C(O)Cc1cccc(C(=O)Nc2ccc3c(c2)OCO3)c1 [Sd-4]

Ki (AGBL2 [1]): 173 nM
Molecule: Cc1cc(F)cnc1CC(=O)O [Sd-1]

Ki (AGBL2 [1]): 428 nM
Molecule: CC(C)c1ccc(Sc2ccc(F)cc2CC(=O)O)cc1 [Sd-3]

Ki (AGBL2 [1]): 87 nM
Molecule: Cc1cc(C(F)(F)F)cnc1CC(=O)O [Sd-2]

Ki (AGBL2 [1]): 27 nM
B1: RARRES1: recombinant N-His RARRES1 protein (MW ~31 kDa) obtained from inclusion bodies (protein, UniProt P49788 1-294, looked up)
Retinoic acid receptor …: MQPRRQRLPAPWSGPRGPRPTAPLLALLLLLAPVAAPAGSGDPDDPGQPQDAGVPRRLLQQAARAALHFFNFRSGSPSALRVLAEVQEGRAWINPKEGCKVHVVFSTERYNPESLLQEGEGRLGKCSARVFFKNQKPRPTINVTCTRLIEKKKRQQEDYLLYKQMKQLKNPLEIVSIPDNHGHIDPSLRLIWDLAFLGSSYVMWEMTTQVSHYYLAQLTSVRQWKTNDDTIDFDYTVLLHELSTQEIIPCRIHLVWYPGKPLKVKYHCQELQTPEEASGTEEGSAVVPTELSNF
modifications: N-terminal His tag
notes: recombinant N-His RARRES1 protein (MW ~31 kDa) obtained from inclusion bodies
